We go through 4 molecules from patent EP4781984A1 (Beyang Therapeutics Co., Ltd., priority 2023, dated 2025).

Series [1] is described as follows: Ophthalmic formulations based on in situ salt formation technology: composition and state (Example 8). In kind it is physicochemical. To be noted: pH ~7. An excerpt:
(§1) In the following ophthalmic formulation preparation examples, "solution" refers to a clear, transparent liquid without visible insoluble matter. "Near-clear solution" refers to a liquid that appears close to a solution upon visual observation but may contain a small amount of insoluble particles or have a slightly opaque color. "Suspension" refers to a liquid that is visibly turbid or opaque. "Gel" refers to a completely or partially gel-like solid.
Example 8: Ophthalmic Formulation Based on In Situ Salt Formation Technology
Therefore, by preparing ophthalmic formulation compositions based on in situ salt formation technology, the solubility of the compounds can be further improved.
According to the formulation composition shown in the table below, weigh the compound powder, add 50% of the total volume (v/v) of a 30% (w/v) aqueous solution of hydroxypropyl-β-cyclodextrin (containing surfactant), and disperse by sonication; next, add an appropriate volume of pH regulator and sonicate until clear; then, add an equal volume of buffer containing solubilizer, viscosity modifier, etc., for dilution, and immediately vortex to mix; finally, add an appropriate volume of alkali regulator to adjust the solution pH to approximately 7, to prepare an eye drop formulation.
Using the in situ salt formation method, the compound is first dispersed in a solution containing Hydroxypropyl-β-cyclodextrin, then different acids are added to adjust the pH to 3-5, allowing the compound to fully or nearly fully dissolve, followed by adding the remaining components and adjusting the pH to approximately 7. […] Based on the visual dissolution effect after acid addition, methanesulfonic acid, acetic acid, and lactic acid were preliminarily selected as pH regulators. The preliminarily selected acids were used in subsequent tests with higher compound concentrations. Table 18 Formulation Composition and State

A short description of series [2]: Thermodynamic solubility test. In kind it is physicochemical. As to conditions: buffer solution, aqueous buffer, thermodynamic from solid; thermodynamic solubility, room temperature, 8 hours shaking; buffers pH 2.0, 6.5, 7.4 used, pH of the tabulated value not given. In short, it runs like this: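 Samples sonicated 10 min, shaken 8 h at room temperature, re-sonicated and centrifuged at 13000 rpm for 15 min. Supernatant recentrifuged and analysed by LC-MS, with concentrations quantified against a 3–5 point calibration curve.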

Another series deals with melanin. Briefly: Compound binding to melanin. Type of series: in vitro ADME. As to conditions: cuttlefish (Sepia officinalis), melanin suspension (1 mg/mL), percentage of free drug (not bound to melanin), 2 µM compound, melanin 1 mg/mL in PBS pH 7.4, 37°C. In a few lines: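 Compound at 2 µM final incubated with 1 mg/mL Sepia melanin in PBS pH 7.4, 37°C, 2 hours with shaking; blank in PBS with 0.1% BSA. Supernatant concentration by LC-MS/MS. Fb = 100 − (Ctest/Ccontrol) × 100%.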

Series [3] in a line: Ophthalmic formulations based on polyethylene glycol series vehicles: composition and state (Example 7). Type of series: physicochemical.
From the text: as §1
Example 7: Ophthalmic Formulations Based on Polyethylene Glycol Series Vehicles
According to the formulation composition shown in the tables below, weigh the compound powder, add it to polyethylene glycol 400, and sonicate until dissolved or nearly dissolved (heat to 50°C if necessary). Add this to a Tris-HCl buffer solution containing hydroxypropyl-β-cyclodextrin, poloxamer 188, and gellan gum (or other viscosity modifier), vortex to mix, and prepare into an eye drop formulation.

Another series has as its target T1, EGFR (Homo sapiens, UniProt P00533).
T1 construct: purchased Carna 08-115
Briefly: Kinase inhibitory activity, Mobility Shift Assay (EGFR). Type of series: biochemical. The method, then:
Assay for Inhibitory Activity of Compounds Against VEGFR and EGFR Kinases
This assay directly monitors the inhibitory activity of compounds on kinase phosphorylation by measuring non-phosphorylated and phosphorylated substrates in the kinase reaction using Mobility Shift Assays/IMAP™ analysis. Table 2. Reagents and Instruments
Kinase and DTT were added to 1X kinase buffer to form a 2.5X kinase solution; 10 µL of the 2.5X kinase solution was transferred to a 384-well reaction plate, and 1X kinase buffer was added to the negative control wells. The plate was incubated at room temperature for 10 minutes; FAM-labeled peptide, MgCl2, ATP, and other reagents were added to 1X kinase buffer to form a 2.5X substrate solution; 10 µL of the above 2.5X substrate solution was transferred to the 384-well reaction plate; the plate was incubated at 28°C for varying times, and then 25 µL of stop solution was added to the 384-well reaction plate to terminate the reaction. Conversion rate data were read on a CaliperEZ Reader II. […] IC50 values were fitted using XLFit excel add-in version 5.4.0.8. Y = Bottom + (Top−Bottom)/(1 + […]) [formula]
X is the log value of compound concentration, Y is the inhibition rate (% inhibition).

Setting [4] is: Table 16: 2 mg/mL, Polyethylene Glycol 400 5, Poloxamer 188 1, Hydroxypropyl-β-cyclodextrin 6, Gellan Gum Gelrite 0.15, Tris-HCl Buffer (pH 6.8) 25mM.
Where [5] appears, read: Table 13: 1mg/ml, Polyethylene glycol 400 5, Hydroxypropyl-β-cyclodextrin 10, Tris-HCl buffer (pH 8.3) 50mM, Carbomer 0.48, Poloxamer 188 1.
[6] abbreviates: Table 14: 5mg/ml, Polyethylene glycol 400 10, Hydroxypropyl-β-cyclodextrin 10, Gellan Gum Gelrite 0.3, Poloxamer 188 1, 0.5 M Tris solution 2, 0.1 M Citric acid 1.
Setting [7] is: Table 15: 10 mg/mL, Polyethylene glycol 400 10, Hydroxypropyl-β-cyclodextrin 10, Gellan Gum Gelrite 0.3, Poloxamer 188 1, Tris solution and Citric acid.

Converted amounts (≈) assume the structure as drawn.

The term solubility denotes how much of the substance goes into solution per volume. Read a high solubility as much dissolved substance. By fraction unbound is commonly meant free concentration divided by total concentration. By IC50 is commonly meant the point on the concentration scale where inhibition reaches its midpoint.

T1 sequence (P00533 25-1210): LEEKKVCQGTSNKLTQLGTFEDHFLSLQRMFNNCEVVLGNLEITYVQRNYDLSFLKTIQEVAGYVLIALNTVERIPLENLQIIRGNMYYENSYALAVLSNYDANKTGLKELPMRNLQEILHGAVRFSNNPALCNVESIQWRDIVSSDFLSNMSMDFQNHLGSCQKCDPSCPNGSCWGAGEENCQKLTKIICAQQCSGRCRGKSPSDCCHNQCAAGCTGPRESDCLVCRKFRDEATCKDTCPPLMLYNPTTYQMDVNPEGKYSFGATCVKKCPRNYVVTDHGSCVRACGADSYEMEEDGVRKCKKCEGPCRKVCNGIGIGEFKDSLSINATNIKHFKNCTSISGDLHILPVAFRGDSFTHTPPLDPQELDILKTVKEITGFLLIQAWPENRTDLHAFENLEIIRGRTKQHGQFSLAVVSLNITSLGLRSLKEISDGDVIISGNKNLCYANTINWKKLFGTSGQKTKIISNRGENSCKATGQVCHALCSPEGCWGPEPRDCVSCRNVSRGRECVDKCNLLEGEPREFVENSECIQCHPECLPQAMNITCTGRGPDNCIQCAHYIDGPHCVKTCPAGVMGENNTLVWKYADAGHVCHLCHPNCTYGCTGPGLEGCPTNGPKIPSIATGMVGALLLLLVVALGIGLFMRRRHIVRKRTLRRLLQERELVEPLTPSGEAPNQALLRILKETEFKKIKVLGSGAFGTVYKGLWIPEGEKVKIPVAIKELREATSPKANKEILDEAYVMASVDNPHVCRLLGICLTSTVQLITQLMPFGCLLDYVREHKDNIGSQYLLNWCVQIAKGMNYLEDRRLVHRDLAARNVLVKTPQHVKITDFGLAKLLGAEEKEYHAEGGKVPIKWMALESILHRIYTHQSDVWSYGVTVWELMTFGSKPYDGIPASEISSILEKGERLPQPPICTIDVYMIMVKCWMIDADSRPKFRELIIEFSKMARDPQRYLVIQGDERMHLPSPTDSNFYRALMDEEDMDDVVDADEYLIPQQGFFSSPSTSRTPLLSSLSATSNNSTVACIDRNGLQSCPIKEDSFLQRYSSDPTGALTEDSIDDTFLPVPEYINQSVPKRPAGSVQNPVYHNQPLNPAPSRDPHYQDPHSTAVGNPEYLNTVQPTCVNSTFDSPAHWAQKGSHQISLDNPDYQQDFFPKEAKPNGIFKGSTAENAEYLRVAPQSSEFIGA

As for `O=C(NC1CC1)c1ccccc1Sc1ccc2c(/C=C/c3cc(OCCN4CCCC4)ccn3)n[nH]c2c1` [Compound I-110, N-cyclopropyl-2-({3-[(E)-2-{4-[2-(pyrrolidin-1-yl)ethoxy]pyridin-2-yl}ethenyl]-1H-indazol-6-yl}sulfanyl)benzamide], the “State Description” value was “near-clear solution” in series [1] (Table 20, Compound 10 mg/ml, 1M Methanesulfonic Acid 2%, Polyoxyethylene castor oil EL 1%, 0.5M Tris 2%) and “near-clear solution” in series [1] (Table 20, Compound 20 mg/ml, 1M Methanesulfonic Acid 4%, Polyoxyethylene castor oil EL 1%, 0.5M Tris 2%).

`O=C(NC1CC1)c1cccc(F)c1Sc1ccc2c(/C=C/c3ccc(CN4CCCC4)cn3)n[nH]c2c1` [Compound I-67, N-cyclopropyl-3-fluoro-2-({3-[(E)-2-{5-[(pyrrolidin-1-yl)methyl]pyridin-2-yl}ethenyl]-1H-indazol-6-yl}thio)benzamide]: the solubility at 8 h in series [2] came out at 118 µg/mL (≈ 230 µM). Further, the fraction unbound at 2 h, 2 µM with melanin was more than 0.05. The “State Description: pH” value in series [3] (setting [4]) is listed as approximately 7. Also, the “State Description: state” value in series [3] (setting [4]) is on record as “solution”. In addition, the “State Description” value is “solution” in series [1] (Table 19, Compound 5 mg/ml, 1M Benzenesulfonic Acid 1%, no Polyoxyethylene castor oil EL, no alkali added); “solution” in series [1] (Table 19, Compound 5 mg/ml, 1M Methanesulfonic Acid 1%, Polyoxyethylene castor oil EL 1%, 0.5M Tris 0.5%); “near-clear solution” in series [1] (Table 19, Compound 5 mg/ml, 1M Methanesulfonic Acid 1%, no Polyoxyethylene castor oil EL, 0.5M Tris 0.5%); “solution” in series [1] (Table 19, Compound 10 mg/ml, 1M Acetic Acid 2%, no Polyoxyethylene castor oil EL, 0.5M Tris 1%); “solution” in series [1] (Table 19, Compound 10 mg/ml, 1M Lactic Acid 2%, no Polyoxyethylene castor oil EL, 0.5M Tris 1%); “near-clear solution” in series [1] (Table 19, Compound 20 mg/ml, 1M Methanesulfonic Acid 4%, Polyoxyethylene castor oil EL 1%, 0.5M Tris 1.5%).

On to `CCN(CC)Cc1ccc(/C=C/c2n[nH]c3cc(Sc4ccc(F)cc4C(=O)NC4CC4)ccc23)nc1` [Compound I-84, N-cyclopropyl-5-fluoro-2-({3-[(E)-2-{5-[(diethylamino)methyl]pyridin-2-yl}ethenyl]-1H-indazol-6-yl}thio)benzamide], for which the solubility at 8 h in series [2] was determined as 599 µg/mL (≈ 1160 µM). In the series on melanin, this molecule had a fraction unbound at 2 h, 2 µM of more than 0.05. In addition, the “State Description: pH” value in series [3] (setting [5]) is approximately 5; in series [3] (setting [6]) it was approximately 7.5; in series [3] (setting [7]), approximately 5.5; in series [3] (setting [4]), approximately 7. Further, the “State Description: state” value in series [3] (setting [5]) is “homogeneous suspension”; in series [3] (setting [6]), “near-clear solution”; in series [3] (setting [7]), “gel”; in series [3] (setting [4]), “solution”. Besides, in series [3] (setting [4]), the “Osmolality (mOsm/kg)” value was approximately 300 mOsm/kg.

Turning to `CCNC(=O)c1cc(F)ccc1Sc1ccc2c(/C=C/c3cnn(CCCN4CCCC4)c3)n[nH]c2c1` [Compound I-104, N-ethyl-5-fluoro-2-({3-[(E)-2-{1-[3-(pyrrolidin-1-yl)propyl]-1H-pyrazol-4-yl}ethenyl]-1H-indazol-6-yl}sulfanyl)benzamide], the 50% inhibitory concentration (IC50) at EGFR is more than 60 µM. The molecule also displayed a solubility at 8 h in series [2] of 2180 µg/mL (≈ 4200 µM). The same molecule had a fraction unbound at 2 h, 2 µM with melanin of more than 0.05. Moreover, in series [3] (setting [4]), the “Osmolality (mOsm/kg)” value is recorded as approximately 300 mOsm/kg, the “State Description: pH” value is listed as approximately 7 and the “State Description: state” value is reported as “solution”.
